According to patent US10501428B2, “Thymoquinone derivatives for treatment of cancer” (United Arab Emirates University, priority 2014, dated 2019):
Read-outs that look alike come from different tables or passages of the source.

Columns and labels:
[1] = test system: G-quadruplex DNA; test: Melting temperature curves of G-quadruplex and TQ complexes by CD; type: binding, human; details: for Tm: equimolar G-quadruplex and TQ 3.93×10^−6 M, Tris-KCl buffer pH 7.4, CD at 293 nm; for Δ Tm: versus G-quadruplex DNA alone (70.0 ° C.)
Experimental: (§1) A 2 ml of the stock single stranded DNA; 5′-[…]-3′ (SEQ ID NO: 1) was gently heated up to 95° C., incubated for 10 minutes and then left to cool to room temperature. Resultant solution was kept in fridge at 4° C. overnight.
Melting temperature curves for G-quadruplex and their TQs adducts were constructed using CD spectral measurements.
A 1 ml telomeric G-quadruplex (3.93×10^−6 M) in Tris-KCl-buffer pH7.4, was heated in 1-5° C. increments in the range 25-95° C. using 5 minutes incubation time intervals. CD spectra were recorded in the range 200-400 nm using 50 nm/min, 1 nm band width and 3 accumulations at each point. CD spectra were baseline corrected against blank solution and CD intensities at 293 nm were plotted versus temperature.
Similarly G-quadruplex-TQ1-8 1 mL complex solutions that were 3.93×10^−6 M of G-quadruplex and 3.93×10−6 M of TQs were heated up to 95° C. and measured. The solutions were prepared by mixing equi-molar amounts of G-quadruplex (27.3 μL, 1.44×10^−4 M) with TQ compounds 1-8 (39.30 μL, 1×10^−4 M) in 1 mL KCl-buffer, pH 7.4. CD spectra were baseline corrected and CD intensities at 293 nm were plotted versus temperature.

[2] = test system: G-quadruplex DNA; test: Fluorescence titration of TQs with G-quadruplex DNA (modified Scatchard); type: binding, human; details: non-linear regression, modified Scatchard equation
Experimental: as §1
To 3 ml of 5×10^−5 M of each of compounds TQ1-8 in Tris-KCl-buffer, pH 7.4, successive portions of G-quadruplex DNA (1.44×10^−4 M) were added. After each addition, the TQ solution was stirred for 20 seconds, incubated for 3 min and its emission was scanned in the range 300-600 nm using excitation Amax of 280 nm and slit width of 10.00 nm. Titration stopped when no change in fluorescence intensity was observed.
Scatchard plots were used to determine the binding affinity of the thymoquinone derivative compounds to G-quadruplex based on fluorescence titration, keeping the compounds concentration constant and varying DNA amounts.
Dependant binding sites may have synergistic (the first bound ligand encourage the next binding one) or antagonistic (the first bound ligand suppress the next binding one) effects on each other, a phenomenon known as the neighbor exclusion effect. Non-linear regression based on a modified Scatchard equation gave the binding constants and number of binding sites shown in Table 3. Compound TQ8 has shown the highest binding constant (1.33×10^7 M^−1) and compound TQ5 has shown the lowest binding constant (7.76×10^4 M^−1)

[3] = test system: Human lung cancer cells A549; test: CellTiter-Glo cell viability assay, A549 lung cancer cells; type: cell-based; details: for cytotoxicity at 100 µM / IC50: Homo sapiens; for cytotoxicity at 100 µM: A549, 100 μM, relative to control (DMSO), read-out: decrease in cell viability; for IC50: A549, 24 hours
Experimental: (§2) Human lung cancer cells A549, human breast cancer cells MDA-MB-231 and colorectal cancer cells HT29, were used to test the antiproliferative activity of the synthesised compounds. Human lung cancer cells A549 were maintained in RPMI 1640 medium (Hyclone Laboratories, USA), human breast cancer cells MDA-MB-231 and colorectal cancer cells HT29 were maintained in DMEM medium (Hyclone Laboratories, USA). All media was supplemented with antibiotics (penicillin 50 U/ml; streptomycin 50 ug/ml) (Hyclone Laboratories, USA).
(§3) Cells were seeded at a density of 5,000 cells/well into 96-well plates. After 24 h, cells were treated for 24 and 48 h with different concentrations of compounds TQ1-5 and 8 (5-100 μM), in triplicate. Control cultures were treated with 0.1% DMSO. The effect of the compounds TQ1-8 on cell viability was determined using the CellTiter-Glo Luminescent Cell Viability assay (Promega Corporation, Madison, USA), based on quantification of ATP, which signals the presence of metabolically active cells. The luminescent signal was measured using the GLOMAX Luminometer system. Data were presented as proportional viability (%) by comparing the treated group with the untreated cells, the viability of which is assumed to be 100%.

[4] = test system: colorectal cancer cells HT29; test: CellTiter-Glo cell viability assay, HT29 colorectal cancer cells; type: cell-based; details: Homo sapiens, HT-29; for cytotoxicity at 100 µM: HT29, 100 μM, read-out: loss in cell viability
Experimental: as §2, §3

[5] = test system: human breast cancer cells MDA-MB-231; test: CellTiter-Glo cell viability assay, MDA-MB-231 breast cancer cells; type: cell-based; details: for cytotoxicity at 100 µM: MDA-MB-231, 100 μM, read-out: loss in cell viability
Experimental: as §2, §3

[6] = test system: Human lung cancer cells A549; details: value has been reported, read-out: IC50 A549 (parent TQ, reported); cited from earlier work

| SMILES | melting point [°C] | Tm [1] [°C] | Δ Tm [1] [°C] | binding constant K [2] [M⁻¹] | cytotoxicity at 100 µM ([3]; 24 hours) [%] | cytotoxicity at 100 µM ([3]; 48 hours exposure) [%] | IC50 [3] [µM] | cytotoxicity at 100 µM ([4]; 24 hours exposure) [%] | cytotoxicity at 100 µM ([4]; 48 hours exposure) [%] | IC50 ([4]; HT29, 24 hours) [µM] | cytotoxicity at 100 µM ([5]; 24 hours exposure) [%] | cytotoxicity at 100 µM ([5]; 48 hours exposure) [%] | IC50 ([5]; MDA-MB-231, 24 hours) [µM] | potency compared to the parent TQ molecule ([3]; A549 IC50 comparison) [%] | IC50 [6] [µM] |
| --- | --- | --- | --- | --- | --- | --- | --- | --- | --- | --- | --- | --- | --- | --- | --- |
| CC1=C(NCCN2CCOCC2)C(=O)C(C(C)C)=CC1=O [TQ1, 5-Isopropyl-2-methyl-3-((2-morpholinoethyl)amino)-1,4-benzoquinone] | 92 to 95 | 79.0 | 9.0 | 113000 | 15 | 33 | 74.3 |  |  |  |  |  |  |  |  |
| CC1=C(NCc2ccc(C(F)(F)F)cc2)C(=O)C(C(C)C)=CC1=O [TQ2, 5-Isopropyl-2-methyl-3-(4-trifluoromethylbenzylamino)-1,4-benzoquinone] | 110.5 to 112 | 76.0 | 6.0 | 567000 | 32 | 57 | 84.3 |  |  |  |  |  |  |  |  |
| CC1=C(NCc2ccc(F)cc2)C(=O)C(C(C)C)=CC1=O [TQ3, 5-Isopropyl-2-methyl-3-(4-fluorobenzylamino)-1,4-benzoquinone] | 80 to 82.5 | 76.0 | 6.0 | 330000 | 29 | 64 | 83.2 |  |  |  |  |  |  |  |  |
| CC1=C(NCc2ccccc2)C(=O)C(C(C)C)=CC1=O [TQ4, 5-Isopropyl-2-methyl-3-(benzylamino)-1,4-benzoquinone] | 83 to 84.5 | 76.0 | 6.0 | 95200 | 17 | 58 | 88.7 |  |  |  |  |  |  |  |  |
| CC1=C(NCc2cc(C(F)(F)F)cc(C(F)(F)F)c2)C(=O)C(C(C)C)=CC1=O [TQ5, 5-Isopropyl-2-methyl-3-(3,5-ditrifluoromethylbenzylamino)-1,4-benzoquinone] | 111 to 114 | 77.0 | 7.0 | 77600 | 33 | 48 | 105 |  |  |  |  |  |  |  |  |
| CC1=C(NCCO)C(=O)C(C(C)C)=CC1=O [TQ6, 5-isopropyl-2-methyl-3-(2-hydroxyethylamino)-1,4-benzoquinone] |  | 80.0 | 10.0 | 1.49e+06 |  |  |  |  |  |  |  |  |  |  |  |
| COc1ccc(CNC2=C(C)C(=O)C=C(C(C)C)C2=O)cc1OC [TQ7, 5-isopropyl-2-methyl-3-(3,4-dimethoxylbenzylamino)-1,4-benzoquinone] |  | 77.0 | 7.7 | 1.17e+06 |  |  |  |  |  |  |  |  |  |  |  |
| CC1=C(N)C(=O)C(C(C)C)=CC1=O [TQ8, 3-amino-5-isopropyl-2-methyl-1,4-benzoquinone] | 68 to 72 |  |  |  | 99 | 100 | 35 | 97 | 99 | 55.8 | 83 | 98 | 45.1 | ≥ 200 |  |
| CC1=CC(=O)C(C(C)C)=CC1=O [TQ, 2-isopropyl-5-methyl-1,1,4-benzoqinone] |  |  |  |  |  |  |  |  |  |  |  |  |  |  | 78.3 |
